± gives the expanded uncertainty stated by the source. Each block holds one compound with its values, some of them ahead of it.
How the values were obtained:
[1] = xn = mol fraction of the nth substance listed; details: 298.15 K, 100 kPa, Liquid, Vibrating tube method
[2] = 298.15 K; 100 kPa; Liquid; Vibrating tube method

SMILES: CCCCCCCCO [octan-1-ol] + C1CCCCC1
mass density ([1]; x2 = 0): 821.4 ± 1 kg/m3 | mass density ([1]; x2 = 0.0815): 818.3 ± 1 kg/m3 | mass density ([1]; x2 = 0.1602): 815.1 ± 1 kg/m3 | mass density ([1]; x2 = 0.2408): 811.7 ± 1 kg/m3 | mass density ([1]; x2 = 0.3494): 806.9 ± 1 kg/m3 | mass density ([1]; x2 = 0.4398): 802.7 ± 1 kg/m3 | mass density ([1]; x2 = 0.5605): 796.8 ± 1 kg/m3 | mass density ([1]; x2 = 0.6496): 792.4 ± 1 kg/m3 | mass density ([1]; x2 = 0.7404): 787.8 ± 1 kg/m3 | mass density ([1]; x2 = 0.8495): 782 ± 1 kg/m3 | mass density ([1]; x2 = 0.94): 777 ± 1 kg/m3

SMILES: CCCCCCCCCCO [decan-1-ol] + C1CCCCC1
mass density ([1]; x2 = 0): 826.1 ± 1 kg/m3 | mass density ([1]; x2 = 0.0819): 823.7 ± 1 kg/m3 | mass density ([1]; x2 = 0.1596): 820.8 ± 1 kg/m3 | mass density ([1]; x2 = 0.2401): 817.6 ± 1 kg/m3 | mass density ([1]; x2 = 0.3482): 812.9 ± 1 kg/m3 | mass density ([1]; x2 = 0.4395): 808.7 ± 1 kg/m3 | mass density ([1]; x2 = 0.5598): 802.6 ± 1 kg/m3 | mass density ([1]; x2 = 0.6498): 797.6 ± 1 kg/m3 | mass density ([1]; x2 = 0.7404): 792.3 ± 1 kg/m3 | mass density ([1]; x2 = 0.849): 785.2 ± 1 kg/m3 | mass density ([1]; x2 = 0.9394): 778.6 ± 1 kg/m3

SMILES: CCCCCCO [hexan-1-ol] + C1CCCCC1
mass density ([1]; x2 = 0): 815.1 ± 1 kg/m3 | mass density ([1]; x2 = 0.0811): 811.6 ± 1 kg/m3 | mass density ([1]; x2 = 0.1597): 808.2 ± 1 kg/m3 | mass density ([1]; x2 = 0.2415): 804.6 ± 1 kg/m3 | mass density ([1]; x2 = 0.3498): 799.8 ± 1 kg/m3 | mass density ([1]; x2 = 0.4412): 795.8 ± 1 kg/m3 | mass density ([1]; x2 = 0.5588): 790.7 ± 1 kg/m3 | mass density ([1]; x2 = 0.65): 786.8 ± 1 kg/m3 | mass density ([1]; x2 = 0.7404): 783.2 ± 1 kg/m3 | mass density ([1]; x2 = 0.8499): 778.8 ± 1 kg/m3 | mass density ([1]; x2 = 0.9398): 775.6 ± 1 kg/m3

SMILES: CCCCCCCCCCO [decan-1-ol]
mass density [2]: 826.1 ± 1 kg/m3

SMILES: CCCCCCCO [heptan-1-ol]
mass density [2]: 818.7 ± 1 kg/m3

SMILES: CCCCCO [pentan-1-ol]
mass density [2]: 810.8 ± 1 kg/m3

SMILES: CCCCCO [pentan-1-ol] + C1CCCCC1
mass density ([1]; x2 = 0): 810.8 ± 1 kg/m3 | mass density ([1]; x2 = 0.081): 807.1 ± 1 kg/m3 | mass density ([1]; x2 = 0.1607): 803.6 ± 1 kg/m3 | mass density ([1]; x2 = 0.2403): 800.1 ± 1 kg/m3 | mass density ([1]; x2 = 0.3487): 795.4 ± 1 kg/m3 | mass density ([1]; x2 = 0.4396): 791.7 ± 1 kg/m3 | mass density ([1]; x2 = 0.5597): 787 ± 1 kg/m3 | mass density ([1]; x2 = 0.6498): 783.7 ± 1 kg/m3 | mass density ([1]; x2 = 0.7408): 780.6 ± 1 kg/m3 | mass density ([1]; x2 = 0.8499): 777.1 ± 1 kg/m3 | mass density ([1]; x2 = 0.9406): 774.8 ± 1 kg/m3

SMILES: CCCCCCCCO [octan-1-ol]
mass density [2]: 821.4 ± 1 kg/m3

SMILES: CCCCCCCCCO [nonan-1-ol]
mass density [2]: 824 ± 1 kg/m3

SMILES: CCCCCCO [hexan-1-ol]
mass density [2]: 815.1 ± 1 kg/m3

SMILES: CCCCCCCO [heptan-1-ol] + C1CCCCC1
mass density ([1]; x2 = 0): 818.7 ± 1 kg/m3 | mass density ([1]; x2 = 0.0805): 815.5 ± 1 kg/m3 | mass density ([1]; x2 = 0.1601): 812.1 ± 1 kg/m3 | mass density ([1]; x2 = 0.2392): 808.7 ± 1 kg/m3 | mass density ([1]; x2 = 0.3503): 803.7 ± 1 kg/m3 | mass density ([1]; x2 = 0.4391): 799.7 ± 1 kg/m3 | mass density ([1]; x2 = 0.5604): 794 ± 1 kg/m3 | mass density ([1]; x2 = 0.6502): 789.8 ± 1 kg/m3 | mass density ([1]; x2 = 0.7396): 785.7 ± 1 kg/m3 | mass density ([1]; x2 = 0.8497): 780.5 ± 1 kg/m3 | mass density ([1]; x2 = 0.94): 776.4 ± 1 kg/m3

More lines, now with the values ahead:

mass density ([1]; x1 = 1): 773.6 ± 1 kg/m3
SMILES: C1CCCCC1 [cyclohexane] + CCCCCO

mass density ([1]; x1 = 1): 773.6 ± 1 kg/m3
SMILES: C1CCCCC1 [cyclohexane] + CCCCCCCO

mass density ([1]; x1 = 1): 773.6 ± 1 kg/m3
SMILES: C1CCCCC1 [cyclohexane] + CCCCCCO

mass density [2]: 773.6 ± 1 kg/m3
SMILES: C1CCCCC1 [cyclohexane]

mass density ([1]; x1 = 1): 773.6 ± 1 kg/m3
SMILES: C1CCCCC1 [cyclohexane] + CCCCCCCCCO

mass density ([1]; x1 = 1): 773.6 ± 1 kg/m3
SMILES: C1CCCCC1 [cyclohexane] + CCCCCCCCO

mass density ([1]; x1 = 1): 773.6 ± 1 kg/m3
SMILES: C1CCCCC1 [cyclohexane] + CCCCCCCCCCO

mass density ([1]; x2 = 0): 824 ± 1 kg/m3 | mass density ([1]; x2 = 0.0817): 821.1 ± 1 kg/m3 | mass density ([1]; x2 = 0.1605): 818 ± 1 kg/m3 | mass density ([1]; x2 = 0.2409): 814.7 ± 1 kg/m3 | mass density ([1]; x2 = 0.3496): 810 ± 1 kg/m3 | mass density ([1]; x2 = 0.4399): 805.8 ± 1 kg/m3 | mass density ([1]; x2 = 0.5606): 799.8 ± 1 kg/m3 | mass density ([1]; x2 = 0.6497): 795.1 ± 1 kg/m3 | mass density ([1]; x2 = 0.7406): 790 ± 1 kg/m3 | mass density ([1]; x2 = 0.8497): 783.6 ± 1 kg/m3 | mass density ([1]; x2 = 0.9403): 777.8 ± 1 kg/m3
SMILES: CCCCCCCCCO [nonan-1-ol] + C1CCCCC1

Reference: the NIST ThermoML archive (doi:10.1016/j.fluid.2019.02.006)
